Data from ChEMBL document CHEMBL2021758, “Synthesis of indolizidinone analogues of cytotoxic alkaloids: monocyclic precursors are also active” (2012).
The source made the active and inactive calls. No cut-off for these calls is given here.

What was measured:
MCF7 [1] = assay: Cytotoxicity against human MCF7 cells assessed as reduction of cell viability at 10 uM after 24 hrs; format: functional, cell-based
MCF7 [2] = assay: Induction of morphological changes in human MCF7 cells assessed as increase in volume of nucleus at 30 uM after 6 hrs; format: functional, cell-based
SH-SY5Y [3] = assay: Induction of morphological changes in human SH-SY5Y cells assessed as cell swelling at 30 uM after 6 hrs; format: functional, cell-based
SH-SY5Y [4] = assay: Induction of morphological changes in human SH-SY5Y cells assessed as cytoplasm vacuolization at 30 uM after 6 hrs; format: functional, cell-based
MCF7 [5] = assay: Induction of morphological changes in human MCF7 cells at 30 uM after 24 hrs; format: functional, cell-based
MCF7 [6] = assay: Induction of morphological changes in human MCF7 cells assessed as cell swelling at 30 uM after 6 hrs; format: functional, cell-based
MCF7 [7] = assay: Induction of morphological changes in human MCF7 cells assessed as increase in refringency of the nucleoli at 30 uM after 6 hrs; format: functional, cell-based
SH-SY5Y [8] = assay: Induction of morphological changes in human SH-SY5Y cells assessed as increase in refringency of the nucleoli at 30 uM after 6 hrs; format: functional, cell-based
MCF7 [9] = assay: Induction of morphological changes in human MCF7 cells assessed as cytoplasm vacuolization at 30 uM after 6 hrs; format: functional, cell-based
SH-SY5Y [10] = assay: Cytotoxicity against human SH-SY5Y cells assessed as reduction of cell viability at 10 uM after 24 hrs; format: functional, cell-based
SH-SY5Y [11] = assay: Induction of morphological changes in human SH-SY5Y cells assessed as increase in volume of nucleus at 30 uM after 6 hrs; format: functional, cell-based
MCF7 [12] = assay: Cytotoxicity against human MCF7 cells assessed as reduction of cell viability at 20 uM after 24 hrs; format: functional, cell-based
SH-SY5Y [13] = assay: Cytotoxicity against human SH-SY5Y cells assessed as reduction of cell viability at 30 uM after 48 hrs; format: functional
SH-SY5Y [14] = assay: Cytotoxicity against human SH-SY5Y cells assessed as reduction of cell viability at 20 uM after 24 hrs; format: functional, cell-based
MCF7 [15] = assay: Cytotoxicity against human MCF7 cells assessed as reduction of cell viability at 30 uM after 48 hrs; format: functional
MCF7 [16] = assay: Induction of morphological changes in human MCF7 cells assessed as change in perimeter of cell at 30 uM after 48 hrs; format: functional, cell-based
MCF7 [17] = assay: Induction of morphological changes in human MCF7 cells assessed as change in cell shape at 30 uM after 48 hrs; format: functional, cell-based
MCF7 [18] = assay: Induction of morphological changes in human MCF7 cells assessed as change in volume of cell at 30 uM after 48 hrs; format: functional, cell-based
SH-SY5Y [19] = assay: Induction of morphological changes in human SH-SY5Y cells assessed as change in perimeter of cell at 30 uM after 48 hrs; format: functional, cell-based
SH-SY5Y [20] = assay: Induction of morphological changes in human SH-SY5Y cells assessed as change in volume of cell at 30 uM after 48 hrs; format: functional, cell-based
SH-SY5Y [21] = assay: Induction of morphological changes in human SH-SY5Y cells assessed as change in cell shape at 30 uM after 48 hrs; format: functional, cell-based

Compound	Activity (MCF7 [1])	Activity (SH-SY5Y [10])	Activity (MCF7 [12])	Activity (SH-SY5Y [13])	Activity (SH-SY5Y [14])	Activity (MCF7 [15])	also measured
O=C(C[C@H]1C[C@@H](O)CN1C(=O)Cc1ccccc1)c1ccc(-c2ccccc2)cc1	Active	Active	–	–	–	–	Activity (MCF7 [2]): Active; Activity (SH-SY5Y [3]): Active; Activity (SH-SY5Y [4]): Active; Activity (MCF7 [5]): Active; Activity (MCF7 [6]): Active; Activity (MCF7 [7]): Active; Activity (SH-SY5Y [8]): Active; Activity (MCF7 [9]): Active; Activity (SH-SY5Y [11]): Active
O=C1C(c2ccccc2)=C(c2ccc(Br)cc2)C[C@@H]2C[C@@H](O)CN12	Active	Active	Active	Active	Active	Active	–
O=C1C(c2ccccc2)=C(c2ccc(-c3ccccc3)cc2)C[C@@H]2C[C@@H](O)CN12	Active	Active	Active	>70%	Active	>70%	–
Cn1cccc1C1=C(c2ccccc2)C(=O)N2C[C@H](O)C[C@H]2C1	Active	Active	Active	Active	Active	Active	–
O=C1C(c2ccccc2)=C(c2ccccc2)C[C@@H]2C[C@@H](O)CN12	Active	Active	Active	Active	Active	Active	–
Cn1cccc1C1=C(c2ccccc2)C(=O)N2C[C@H](O)C[C@@H]2C1	Active	Active	Active	Active	Active	Active	–
O=C1C(c2ccccc2)=C(c2ccc(Br)cc2)C[C@H]2C[C@@H](O)CN12	Active	Active	Active	–	Active	Active	–
COc1ccc(C2=C(c3ccccc3)C(=O)N3C[C@H](O)C[C@H]3C2)cc1	Active	Active	Active	Active	Active	Active	–
O=C(C[C@@H]1C[C@@H](O)CN1C(=O)Cc1ccccc1)c1ccc(-c2ccccc2)cc1	Active	Active	–	–	–	–	–
O=C1C(c2ccccc2)=C(c2ccc(-c3ccccc3)cc2)C[C@H]2C[C@@H](O)CN12	Active	Active	Active	>70%	Active	>70%	Activity (MCF7 [16]): Active; Activity (MCF7 [17]): Active; Activity (MCF7 [18]): Active; Activity (SH-SY5Y [19]): Active; Activity (SH-SY5Y [20]): Active; Activity (SH-SY5Y [21]): Active
COc1ccc(C2=C(c3ccccc3)C(=O)N3C[C@H](O)C[C@@H]3C2)cc1	Active	Active	Active	–	Active	Active	–
O=C1C(c2ccccc2)=C(c2ccccc2)C[C@H]2C[C@@H](O)CN12	Active	Active	Active	Active	Active	Active	–
